Reference: patent US11484536B2, “Method of treating metastatic cancer in a subject with a protein inhibitor” (City University of Hong Kong, priority 2020, dated 2022)
“Also recorded” adds a separate entry of the source.

Legend:
HeLa cells [1] = assay: LC3-II and p62 accumulation immunoblot; format: cell-based
Description: FIG. 12A is a synthetic scheme of a V1 analog carrying a clickable terminal alkynyl group. FIG. 12B is a synthetic scheme of azide-biotin. FIG. 12C is a synthetic scheme of Vi-biotin.
FIG. 23A is a schematic diagram illustrating the structure of 6J-1.
Subsequently, biotin-V1 was administered to HeLa cell extracts, the V1 binding complex was purified with streptavidin beads, and subjected to mass analysis. There were 85 potential V1 binding proteins identified in three independent experiments with high fidelity (FIG. 13A). Among them, 32 proteins were clustered in endocytosis and vesicle-mediated transport pathways using KOBAS online software.
In this example, a 6-morpholino-1,3,5-triazine derivative, 6J-1 was synthesized and used as an exemplary example to illustrate the inhibitory effect of 6-morpholino-1,3,5-triazine derivatives on endosomal trafficking and metastasis. As illustrated above, the induction of accumulation of LC3-II and p62 by biotin-V1 would accompany with the induction of vacuoles as well as the inhibition of transferrin degradation (see Example 4).

[2] = test system: HeLa, A549, or MDA-MB-231 cells; assay: Cytotoxicity of 6J-1 by PI staining and living cell number; format: cell-based
Description: FIG. 24A is a bar chart showing the percentage of cell death of HeLa cells treated with or without 6J-1 at the indicated concentrations for 24 or 48 h. FIG. 24B is a bar chart showing the percentage of cell death of A549 cells treated with or without 6J-1 at the indicated concentrations for 24 or 48 h. FIG. 24C is a bar chart showing the percentage of cell death of MDA-MB-231 cells treated with or without 6J-1 at the indicated concentrations for 24 or 48 h.
FIG. 25A is a line chart showing the number of HeLa cells treated with or without 6J-1 at the indicated concentrations for 0, 24 or 48 h. FIG. 25B is a line chart showing the number of MDA-MB-231 cells treated with or without 6J-1 at the indicated concentrations for 0, 24 or 48 h. FIG. 25C is a line chart showing the number of A549 cells treated with or without 6J-1 at the indicated concentrations for 0, 24 or 48 h.
The cytotoxicity of 6J-1 on different cancer cell lines has been examined by PI staining, and the cell number of living cells was quantified as well. As shown in FIGS. 24A-24C and 25A-25C, 6J-1 is non-cytotoxic to HeLa, A549, or MDA-MB-231 cells at concentrations of 0.01-10 μM. Even at a concentration of as high as 100 μM, there were over 80% of the 6J-1-treated cells remained alive.

[3] = test system: 4T1, A549, HCCLM3, and HepG2; assay: Colony formation of cancer cell lines; format: cell-based; details: indicated concentrations
Text: FIG. 26 is a series of optical images showing colony formation of 4T1, A549, HCCLM3, and HepG2 cells treated with or without 6J-1 at the indicated concentrations.
(§1) The inhibitory effect of 6J-1 on colony formation of several cancer cell lines, including 4T1, A549, HCCLM3, and HepG2 has been examined. […] Overall, 6J-1 is found to be as potent as V1.

A549 and HepG2 cells = assay: Migration of cancer cells treated with 6J-1; format: cell-based; details: 6J-1 1 μM
Description: FIG. 27A is a pair of microscopic images showing the migration of A549 cells treated with or without 6J-1 (1 μM). FIG. 27B is a series of microscopic images showing the migration of HepG2 cells treated with or without V1 (1 μM) or 6J-1 (1 μM).
as §1

A549 cells = assay: Invasion of cancer cells treated with 6J-1; format: cell-based; details: 6J-1 1 μM
Description: FIG. 28 is a pair of microscopic images showing the invasion of A549 cells treated with or without 6J-1 (1 μM).
as §1

[4] = test system: 4T1 mouse breast cancer cells; assay: Spontaneous cancer mouse model, fat pad injection of 4T1 cells into nude mice; details: 6J-1 30 mg/kg, oral, every day, 4 weeks
Description: FIG. 5A is a schematic diagram showing a method for determining the anti-metastatic activity of V1 in female nude mice with their fat pads injected with 4T1 cells, where V1 is administered to the mice via an oral gauge. FIG. 5B is a series of optical images showing the excised lungs of the mice treated with a buffer or V1 (15 or 30 mg/kg, daily) via the oral gauge for 4 weeks. FIG. 5C is a line plot showing the number of tumor nodules in the excised lungs against different concentrations of V1.
FIG. 29A is a series of optical images showing the excised lungs of female nude mice treated with a buffer or 6J-1 (30 mg/kg, oral delivery, daily) for 4 weeks. FIG. 29B is a line plot showing the number of tumor nodules in the excised lungs of the mice of FIG. 29A.
First, we studied V1's anti-metastatic effects in a spontaneous cancer mouse model by fat pad injecting 4T1 mouse breast cancer cells into nude mice (FIG. 5A). After tumors were palpable (˜5 mm, around day 9), the mice were randomly divided into three groups (six mice per group) orally treated with or without V1 (15 or 30 mg/ml) every day. After 4 weeks, the mice were sacrificed; the primary tumors and lungs of the mice were harvested for analysis.

[5] = test system: 4T1, 4T07, and MDA-MB-231 cells; assay: Trans-well migration assay; format: cell-based, human or mouse; details: indicated concentrations, 18 h, compared with V1
Description: FIG. 2A is a series of microscopic images and bar charts showing the migration of 4T1, 4T07, and MDA-MB-231 cells in transwell plates in the presence or absence of V1 (1 μM). FIG. 2B is a series of microscopic images and bar charts showing the invasion of 4T1, 4T07, and MDA-MB-231 cells in invasion chambers in the presence or absence of V1 (1 μM). FIG. 2C is a series of optical images and a bar chart showing the closure of a scratch-wound plated with 4T1 cells, treated with or without V1 (1 μM), after 0, 24, and 48 h. FIG. 2D is a series of optical images and a bar chart showing the closure of a scratch-wound plated with 4T07 cells, treated with or without V1 (1 μM), after 0, 24, and 48 h. FIG. 2E is a series of microscopic images showing the migration of 4T07 cells in transwell plates in the presence or absence of V1 or LA at indicated concentrations after 18 h. […]
In this example, the cytotoxicity and the anti-migration effects of V1 are compared with latrunculin A (LA), an F-actin destabilizer. […] The breast cancer cells were placed on the upper chamber of the transwell plates or invasion chambers coated with Matrigel in the presence or absence of V1, after 18 h of incubation, the cells at the lower chamber were stained with crystal violet and quantified. […]

HeLa cells [6] = assay: Focal adhesion dynamics after nocodazole release (Vinculin puncta); format: cell-based; details: nocodazole treatment
Text: The indicated time points represent at which NOC was removed from the HeLa cells, followed by staining the cells with anti-Vinculin antibody and Phalloidin. […] The indicated time points of FIGS. 3B and 3C represent at which the HeLa cells were released from cold arrest, followed by being stained with antibodies against EEA1 or LAMP1.
Focal adhesion (FA) dynamics is a key process during cell migration and therefore the effects of V1 treatment on spatiotemporal regulation of FA dynamics have been assessed. HeLa cells were plated on cover slides at 24-well plates and treated with nocodazole (NOC) in the presence or absence of V1 (1 μM). At indicated times, after removing NOC, the cells were stained with anti-Vinculin antibody and Phalloidin, and the Vinculin puncta were quantified.

[7] = target: T1, recombinant CapZβ-CapZα heterodimer (Homo sapiens, UniProt P47756); assay: Streptavidin pulldown with purified recombinant CapZα and CapZβ; format: binding; details: in vitro
T1 construct: His6
Description: FIG. 14D is a pair of immunoblots of purified CapZα and CapZβ recombinant proteins after incubated with Biotin-V1. FIG. 14E is a CapZβ immunoblot of lysate of HeLa cells treated with biotin or Biotin-V1.
The expression of these genes in HeLa cells were knocked out by CRISPR/Cas9 to assess whether the ability of V1 inducing vacuole formation or endocytosis arrest would be affected by these knockdowns. […] CapZα and CapZβ are the α and β subunits of the actin capping protein (CP), also called CapZ, and the CapZβ-CapZα heterodimeric complex normally binds to the barbed ends of actin filaments to prevent further filament elongation. To investigate whether biotin-V1 or biotin alone would be able to bind with the CapZβ-CapZα heterodimeric complex, the inventors have incubated biotin or bioin-V1 with purified His6-CapZα and His6-CapZβ recombinant proteins, or purified CapZα and CapZβ proteins, followed by subjecting the mixture to streptavidin pulldown. The streptavidin pulldowns were analyzed by His6 immunoblotting, coomassie blue staining or CapZβ immunoblotting. […] In addition, in another experiment, HeLa cells were treated with biotin or biotin-V1 and the lysate thereof was incubated with streptavidin beads, followed by subjecting to streptavidin pulldown.

OCCOCCN(c1ccccc1)c1nc(N/N=C/c2cccc(I)c2)nc(N2CCOCC2)n1 [6J-1]
accumulation of LC3-II and p62 (HeLa cells [1]): highly comparable result as V1; also recorded: induces comparable accumulation of LC3-II and p62 in HeLa cells as V1
treated cells remained alive ([2]; 100 μM): over 80%
cytotoxicity ([2]; 0.01-10 μM, 24 or 48 h): non-cytotoxic
colony formation [3]: inhibitory on the colony formation of all the aforementioned cell lines in a dose dependent manner
migration of cancer cells (A549 and HepG2 cells): capable of inhibiting migration and invasion of cancer cells
invasion of cancer cells (A549 cells): capable of inhibiting migration and invasion of cancer cells
metastasis of 4T1 cells (tumor nodules in the lungs) [4]: significantly inhibited the metastasis of 4T1 cells

C/C1=C/C(=O)O[C@@H]2C[C@@H](CC[C@H](C)/C=C\C=C\CC1)O[C@@](O)([C@@H]1CSC(=O)N1)C2 [LA, latrunculin A]
migration of 4T07 cells [5]: much lower effect on the migration of 4T07 cells at similar concentrations of V1

COC(=O)Nc1nc2ccc(C(=O)c3cccs3)cc2[nH]1 [NOC, nocodazole]
effect on microtubules and formation of FAs (HeLa cells [6]): depolymerized the microtubules and stabilized the formation of FAs

O=C(O)CCCC[C@@H]1SC[C@@H]2NC(=O)N[C@@H]21 [biotin]
interaction with recombinant CapZβ-CapZα heterodimer [7]: not biotin alone
